Measurements published in ChEMBL document CHEMBL3244031, “Synthesis of octanoyl[8-leucyl]angiotensin II, a lipophilic angiotensin antagonist” (J Med Chem, 1977).
Where a SMILES comes first, the peptide text is derived from it. The star is where a group is joined. Octanoyl = CCCCCCCC(=O)*

Columns and labels:
[1] = molecular target: T1, Angiotensin II receptor (Rattus norvegicus) (UniProt P29089+P25095+P35351); experiment: Antagonist activity at angiotensin 2 receptor in rat uterus assessed as concentration required to reduce maximum response induced by agonist by one-half after 15 mins; assay type: tissue-based
Cavia porcellus [2] = species on record: Cavia porcellus; experiment: Agonist activity at angiotensin 2 receptor in guinea pig ileum relative to angiotensin-2; assay type: tissue-based
Angiotensin II receptor = molecular target: T2, Angiotensin II receptor (Rattus norvegicus, UniProt P29089+P25095+P35351); experiment: Antagonist activity at angiotensin 2 receptor in rat uterus assessed as inhibition of angiotensin-2-induced effect after 15 mins; assay type: tissue-based
T2 sequence (P29089 whole entry): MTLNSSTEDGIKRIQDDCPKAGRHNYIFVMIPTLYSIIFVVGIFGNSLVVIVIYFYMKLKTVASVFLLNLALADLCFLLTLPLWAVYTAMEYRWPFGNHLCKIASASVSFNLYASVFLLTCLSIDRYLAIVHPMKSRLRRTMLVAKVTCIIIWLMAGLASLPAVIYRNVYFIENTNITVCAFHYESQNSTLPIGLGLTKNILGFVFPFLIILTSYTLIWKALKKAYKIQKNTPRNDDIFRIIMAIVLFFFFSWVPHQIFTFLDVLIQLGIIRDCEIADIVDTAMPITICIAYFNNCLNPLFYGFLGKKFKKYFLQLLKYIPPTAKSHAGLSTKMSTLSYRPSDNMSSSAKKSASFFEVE
T2 sequence (P25095 whole entry): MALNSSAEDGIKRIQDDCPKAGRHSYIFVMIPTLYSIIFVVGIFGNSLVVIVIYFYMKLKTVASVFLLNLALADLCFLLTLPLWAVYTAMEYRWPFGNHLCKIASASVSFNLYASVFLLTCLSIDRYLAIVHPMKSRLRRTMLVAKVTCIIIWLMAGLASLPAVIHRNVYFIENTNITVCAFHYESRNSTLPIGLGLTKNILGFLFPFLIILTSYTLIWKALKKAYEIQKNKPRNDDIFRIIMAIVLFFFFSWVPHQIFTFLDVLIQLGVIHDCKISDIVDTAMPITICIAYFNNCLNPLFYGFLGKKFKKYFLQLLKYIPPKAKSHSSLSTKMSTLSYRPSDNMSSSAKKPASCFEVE
T2 sequence (P35351 whole entry): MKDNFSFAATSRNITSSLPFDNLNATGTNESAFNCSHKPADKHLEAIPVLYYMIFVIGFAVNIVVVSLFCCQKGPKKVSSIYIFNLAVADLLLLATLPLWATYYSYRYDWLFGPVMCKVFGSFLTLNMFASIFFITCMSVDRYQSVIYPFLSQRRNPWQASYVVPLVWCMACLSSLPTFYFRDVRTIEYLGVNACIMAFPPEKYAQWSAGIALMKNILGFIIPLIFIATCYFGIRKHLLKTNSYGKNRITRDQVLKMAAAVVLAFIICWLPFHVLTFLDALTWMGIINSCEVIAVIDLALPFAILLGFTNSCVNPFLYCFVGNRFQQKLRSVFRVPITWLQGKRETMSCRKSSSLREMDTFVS

[3] = molecular target: T1, Angiotensin II receptor (Rattus norvegicus); experiment: Antagonist activity at angiotensin 2 receptor in rat uterus assessed as time required for recovery of organ's response at 2 X 10^-7 M administered 3 mins prior to angiotensin-2 challenge followed by compound washout at 2 mins post challenge; assay type: tissue-based
Rattus norvegicus [4] = experiment: Antihypertensive activity in iv dosed rat assessed as dose required to inhibit angiotensin-2-induced increase in blood pressure; assay type: functional
[5] = molecular target: T1, Angiotensin II receptor (Rattus norvegicus); experiment: Agonist activity at angiotensin 2 receptor in rat uterus relative to angiotensin-2; assay type: tissue-based
Cavia porcellus [6] = experiment: Antagonist activity at angiotensin 2 receptor in guinea pig ileum assessed as time required for recovery of organ's response at 2 X 10^-7 M administered 3 mins prior to angiotensin-2 challenge followed by compound washout at 2 mins post challenge; assay type: tissue-based
Rattus norvegicus [7] = experiment: Increase in blood pressure in iv dosed rat relative to angiotensin-2; assay type: functional
Rattus norvegicus [8] = experiment: Antihypertensive activity in iv dosed rat assessed as time required for recovery of angiotensin-2-induced increase in blood pressure; assay type: functional, organism-based
[9] = Partition coefficient, log K of the compound in n-BuOH-HOAc-H2O; assay type: physicochemical
[10] = Antagonist activity at angiotensin 2 receptor in guinea pig ileum assessed as inhibition of angiotensin-2-induced effect after 15 mins; assay type: tissue-based; conditions: Cavia porcellus, 0.25 h, read-out: pA2 (converted)
Cavia porcellus [11] = species on record: Cavia porcellus; experiment: Antagonist activity at angiotensin 2 receptor in guinea pig ileum assessed as concentration required to reduction of angiotensin-2-induced maximum response by one-half after 15 mins; assay type: tissue-based
[12] = molecular target: T1, Angiotensin II receptor (Rattus norvegicus); experiment: Antagonist activity at angiotensin 2 receptor in rat uterus assessed as time required for recovery of organ's response at 2 X 10^-8 M administered 3 mins prior to angiotensin-2 challenge followed by compound washout at 5 mins post challenge; assay type: tissue-based
Cavia porcellus [13] = experiment: Antagonist activity at angiotensin 2 receptor in guinea pig ileum assessed as time required for recovery of organ's response at 2 X 10^-8 M administered 3 mins prior to angiotensin-2 challenge followed by compound washout at 2 mins post challenge; assay type: tissue-based

Compound	pAh [1]	Activity (Cavia porcellus [2]) [%]	pA2 (Angiotensin II receptor)	T1/2 [3] [min]	Activity (Rattus norvegicus [4]) [ug/min.kg]	Activity [5] [%]	T1/2 (Cavia porcellus [6]) [min]	Activity (Rattus norvegicus [7]) [%]	T1/2 (Rattus norvegicus [8]) [min]	K [9]	Kb [10] [nM]	pAh (Cavia porcellus [11])	T1/2 [12] [min]	T1/2 (Cavia porcellus [13]) [min]
CCCCCCCC(=O)N[C@@H](CC(=O)O)C(=O)N[C@@H](CCCNC(=N)N)C(=O)N[C@H](C(=O)N[C@@H](Cc1ccc(O)cc1)C(=O)N[C@H](C(=O)N[C@@H](Cc1cnc[nH]1)C(=O)N1CCC[C@H]1C(=O)N[C@@H](CC(C)C)C(=O)O)[C@@H](C)CC)C(C)C (Octanoyl-DRVYIHPL-OH)	6	0.15	8.42	6.6	2.3	0.21	1.7	0.1	12	7	22.9	6.2		
H-DRVYIHPL-OH	6.2	0.016	8.33		10.2	0.025		0.09	12	0.18	1.2	7.3	28.1	3.8
